Patent US9057093B2 (priority 2010, dated 2015)
Read-outs that look alike come from different tables or passages of the source.

System: Legionella pneumophila strains
Format: cell-based
Settings: for optimal dose: dose giving best improvement in latency and/or growth rate
[1] = supplemented medium vs reference medium (YEC), doses between 0.01 and 5% weight of compound on volume of sample, variety of strains
[2] = doses of between 10^−6 to 10^−2 mM, especially 10^−4 mM, numerous strains

Row | SMILES | latency and/or growth rate (doses of between 1 to 10^−4 mM, especially around 10^−2 mM, a number of strains) | optimal dose | latency and/or growth rate [1] | latency and/or growth rate [2]
1 | [Cl-].[K+] [potassium chloride] | Improvements in latency and/or growth rate | – | – | –
2 | N[C@@H](CO)C(=O)O [serine] | – | around 1 g per litre | improvements in latency and/or growth rate | –
3 | [Ca+2].[Cl-].[Cl-] [calcium chloride] | – | – | – | Improvements in latency and/or growth rate
4 | C[C@@H](O)[C@H](N)C(=O)O [threonine] | – | around 1 g per litre | improvements in latency and/or growth rate | –
5 | [Cl-].[Cl-].[Mg+2] [magnesium chloride] | – | – | – | Improvements in latency and/or growth rate
